22 compounds from patent US20230031406A1, “COMPOUNDS AND COMPOSITIONS FOR TREATING CONDITIONS ASSOCIATED WITH NLRP ACTIVITY” (Novartis AG, priority 2018, published 2023) can be followed below.

For assay [1], the system named is PMA-differentiated THP-1 cells. The assay is described as follows: IL-1β production in PMA-differentiated THP-1 cells stimulated with gramicidin (hTHP-1 assay containing 2% fetal bovine serum; Procedures 1 and 2). It is filed as cell-based, human. As to conditions: read-out: hTHP-1 IC50 in 2% FBS, hTHP-1 assay containing 2% fetal bovine serum, Table B5. Put shortly: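 PMA 20 ng/ml 16-18 h → trypsinise → 50,000 cells/well, RPMI/2% FBS; cpd 1 h (11-pt, 100–0.0017 μM; DMSO 0.37%); gramicidin 5 μM, 2 h; spin; supernatant IL-1β via HTRF.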

Assay [2] has as its system PMA-differentiated THP-1 cells. The assay is described as follows: hTHP-1 assay containing 10% fetal bovine serum (IL-1β production, Tables B5 and B6). In kind it is cell-based, human. Put shortly: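 IL-1β release from PMA-differentiated THP-1 macrophage-like cells was triggered by 5 μM gramicidin for 2 h after 1 h compound exposure, then measured by HTRF.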
Where [3] appears, read: read-out: hTHP-1 IC50 in 10% FBS, hTHP-1 assay containing 10% fetal bovine serum, Table B6.
Where [4] appears, read: Homo sapiens, THP-1, read-out: hTHP-1 IC50 in 10% FBS, hTHP-1 assay containing 10% fetal bovine serum, Table B6.
Where [5] appears, read: Homo sapiens, THP-1, read-out: hTHP-1 IC50 in 10% FBS, hTHP-1 assay containing 10% fetal bovine serum, Table B5.

SMILES strings stand for the structures.

Broadly, the IC50 is the midpoint of a concentration-inhibition curve. For the compound `CCn1cc(F)c(S(N)(=O)=NC(=O)Nc2c(C)c(C(F)(F)F)nc3c2C(C)CC3)n1` (single isomer, unassigned) [Compound 1100c, (S, R) or (S, S)-N′-((3,5-dimethyl-2-(trifluoromethyl)-6,7-dihydro-5H-cyclopenta[b]pyridin-4-yl)carbamoyl)-1-ethyl-4-fluoro-1H-pyrazole-3-sulfonimidamide], the IC50 in assay [1] (listed as 819) is 5000 to 30000 nM; in assay [2] (read-out: hTHP-1 IC50 in 10% FBS, hTHP-1 assay containing 10% fetal bovine serum, Table B5, listed as 819), 5000 to 30000 nM.

On to `CCn1cc(F)c(S(N)(=O)=NC(=O)Nc2c(C)c(C(F)(F)F)nc3c2CC(C)C3)n1` (stereo not shown) [Compound 1101, N′-((3,6-dimethyl-2-(trifluoromethyl)-6,7-dihydro-5H-cyclopenta[b]pyridin-4-yl)carbamoyl)-1-ethyl-4-fluoro-1H-pyrazole-3-sulfonimidamide], for which the IC50 in assay [1] (listed as 796) fell in the range of 8 to 40 nM; in assay [2] (read-out: hTHP-1 IC50 in 10% FBS, hTHP-1 assay containing 10% fetal bovine serum, Table B5, listed as 796) it was 200 to 1000 nM.

For `CC(C)n1cc(F)c(S(N)(=O)=NC(=O)Nc2c3c(nc(C4CC4)c2C2CC2)CCC3)n1` (single isomer, unassigned) [Compound 1103a, (R) or (S)-N′-((2,3-dicyclopropyl-6,7-dihydro-5H-cyclopenta[b]pyridin-4-yl)carbamoyl)-4-fluoro-1-isopropyl-1H-pyrazole-3-sulfonimidamide], the IC50 in assay [1] (listed as 815) lay in the range of 40 to 200 nM; in assay [2] (read-out: hTHP-1 IC50 in 10% FBS, hTHP-1 assay containing 10% fetal bovine serum, Table B5, listed as 815), 8 to 40 nM.

Turning to `NS(=O)(=NC(=O)Nc1c2c(nc3c1CCC3)CCC2)c1nn(C2CC2)cc1F` (single isomer, unassigned) [Example 864, (S) or (R)-1-cyclopropyl-4-fluoro-N′-((1,2,3,5,6,7-hexahydrodicyclopenta[b,e]pyridin-8-yl)carbamoyl)-1H-pyrazole-3-sulfonimidamide], the IC50 in assay [2] (setting [3]) is 200 to 1000 nM.

Take `C[C@@H]1CCc2c1nc1c(c2NC(=O)N=S(N)(=O)c2nn(C3CC3)cc2F)CCC1` (stereo partly drawn) [Example 855, 1-Cyclopropyl-4-fluoro-N′-(((R)-3-methyl-1,2,3,5,6,7-hexahydrodicyclopenta[b,e]pyridin-8-yl)carbamoyl)-1H-pyrazole-3-sulfonimidamide]: the half-maximal inhibitory concentration (IC50) in assay [2] (setting [4]) lay within 8 to 40 nM.

Turning to `C[C@@H](O)Cn1cc(F)c(S(N)(=O)=NC(=O)Nc2c3c(nc4c2CCC42CC2)CCC3)n1` (stereo partly drawn) [Compound 1119, 4-Fluoro-1-((R)-2-hydroxypropyl)-N′-((1′,5′,6′,7′-tetrahydro-2′H-spiro[cyclopropane-1,3′-dicyclopenta[b,e]pyridin]-8′-yl)carbamoyl)-1H-pyrazole-3-sulfonimidamide], the IC50 in assay [2] (setting [5]) was in the range of 8 to 40 nM.

In the case of `C[C@@H]1CCc2c1nc1c(c2NC(=O)N=S(N)(=O)c2nn(C3CC3)cc2F)CCC1` (single isomer, unassigned) [Example 867, (R) or (S)-1-cyclopropyl-4-fluoro-N′-(((R)-3-methyl-1,2,3,5,6,7-hexahydrodicyclopenta[b,e]pyridin-8-yl)carbamoyl)-1H-pyrazole-3-sulfonimidamide], the IC50 in assay [2] (setting [3]) was less than 8 nM.

Consider `NS(=O)(=NC(=O)Nc1c2c(nc3c1CCC3)CCC2)c1nn(C2CC2)cc1F` (stereo not shown) [Example 858, 1-Cyclopropyl-4-fluoro-N′-((1,2,3,5,6,7-hexahydrodicyclopenta[b,e]pyridin-8-yl)carbamoyl)-1H-pyrazole-3-sulfonimidamide], for which the IC50 in assay [2] (setting [4]) lay in the range of 40 to 200 nM.

In the case of `CC(C)(O)c1csc(S(N)(=O)=NC(=O)Nc2c3c(nc(C(F)(F)F)c2C2CC2)CCC3)c1F` (stereo not shown) [Compound 1105, N′-((3-cyclopropyl-2-(trifluoromethyl)-6,7-dihydro-5H-cyclopenta [b]pyridin-4-yl)carbamoyl)-3-fluoro-4-(2-hydroxypropan-2-yl) thiophene-2-sulfonimidamide], the IC50 in assay [2] (setting [5]) was 40 to 200 nM.

With `Cc1c(C(F)(F)F)nc2c(c1NC(=O)N=S(N)(=O)c1nn(C3CC3)cc1F)CCC2` (single isomer, unassigned) [Example 869, (R) or (S)-1-cyclopropyl-4-fluoro-N′-((3-methyl-2-(trifluoromethyl)-6,7-dihydro-5H-cyclopenta[b]pyridin-4-yl)carbamoyl)-1H-pyrazole-3-sulfonimidamide], in assay [2] (setting [3]), the IC50 was 8 to 40 nM.

Consider `CCn1cc(F)c(S(N)(=O)=NC(=O)Nc2c3c(nc(C(F)(F)F)c2C(F)(F)F)CCC3)n1` (stereo not shown) [Example 856, N′-((2,3-bis(trifluoromethyl)-6,7-dihydro-5H-cyclopenta[b]pyridin-4-yl)carbamoyl)-1-ethyl-4-fluoro-1H-pyrazole-3-sulfonimidamide], for which the IC50 in assay [2] (setting [4]) was in the range of 40 to 200 nM.

On to `CC(C)(O)c1csc(S(N)(=O)=NC(=O)Nc2c3c(nc(C4CC4)c2C2CC2)CCC3)c1F` (stereo not shown) [Compound 1006, N′-((2,3-dicyclopropyl-6,7-dihydro-5H-cyclopenta[b]pyridin-4-yl)-carbamoyl)-3-fluoro-4-(2-hydroxypropan-2-yl)thiophene-2-sulfonimidamide], for which the IC50 in assay [2] (setting [5]) was in the range of 40 to 200 nM.

Regarding `CCn1cc(F)c(S(N)(=O)=NC(=O)Nc2c3c(nc(C(F)(F)F)c2-c2ccc(F)c(F)c2)CCC3)n1` (single isomer, unassigned) [Compound 1113b, (R) or (S)-N′-((3-(3,4-difluorophenyl)-2-(trifluoromethyl)-6,7-dihydro-5H-cyclopenta[b]pyridin-4-yl)carbamoyl)-1-ethyl-4-fluoro-1H-pyrazole-3-sulfonimidamide], the IC50 in assay [2] (read-out: hTHP-1 IC50 in 10% FBS, hTHP-1 assay containing 10% fetal bovine serum, Table B5, listed as 837) is 8 to 40 nM.

On to `Cc1c(C(F)(F)F)nc2c(c1NC(=O)N=S(N)(=O)c1nn(C(C)(F)F)cc1F)CCC2` (single isomer, unassigned) [Compound 1004a, (R) or (S)-1-(1,1-Difluoroethyl)-4-fluoro-N′-((3-methyl-2-(trifluoromethyl)-6,7-dihydro-5H-cyclopenta[b]pyridin-4-yl)carbamoyl)-1H-pyrazole-3-sulfonimidamide], for which the IC50 in assay [2] (read-out: hTHP-1 IC50 in 10% FBS, hTHP-1 assay containing 10% fetal bovine serum, Table B5, listed as 832) was in the range of 40 to 200 nM.

`C[C@@H]1CCc2c1nc1c(c2NC(=O)N=S(N)(=O)c2scc(C(C)(C)O)c2F)CCC1` (stereo partly drawn) [Compound 1109, 3-Fluoro-4-(2-hydroxy-propan-2-yl)-N′-(((R)-3-methyl-1,2,3,5,6,7-hexahydrodicyclopenta [b,e]pyridin-8-yl)-carbamoyl)thiophene-2-sulfonimidamide]: the IC50 in assay [2] (setting [5]) lay in the range of 8 to 40 nM.

Consider `CC(C)(O)c1csc(S(N)(=O)=NC(=O)Nc2c3c(nc4c2CCC4)CCC3)c1F` (single isomer, unassigned) [Compound 1107b, (S) or (R)-3-fluoro-N′-((1,2,3,5,6,7-hexahydrodicyclopenta[b,e]pyridin-8-yl)carbamoyl)-4-(2-hydroxypropan-2-yl)thiophene-2-sulfonimidamide], for which the IC50 in assay [2] (read-out: hTHP-1 IC50 in 10% FBS, hTHP-1 assay containing 10% fetal bovine serum, Table B5, listed as 839) lay within 1000 to 5000 nM.

`C[C@@H]1CCc2c1nc1c(c2NC(=O)N=S(N)(=O)c2scc(C(C)(C)O)c2F)CCC1` (single isomer, unassigned) [Compound 1109a, (R) or (S)-3-fluoro-4-(2-hydroxypropan-2-yl)-N′-(((R)-3-methyl-1,2,3,5,6,7-hexahydrodicyclopenta [b,e]pyridin-8-yl)carbamoyl) thiophene-2-sulfonimidamide]: in assay [2] (read-out: hTHP-1 IC50 in 10% FBS, hTHP-1 assay containing 10% fetal bovine serum, Table B5, listed as 842), the IC50 lay within 8 to 40 nM.

As for `Cc1nc2c(c(NC(=O)N=S(N)(=O)c3scc(C(C)(C)O)c3F)c1-c1ccccc1)CCC2` (stereo not shown) [Compound 1110, 3-Fluoro-4-(2-hydroxy-propan-2-yl)-N′-((2-methyl-3-phenyl-6,7-dihydro-5H-cyclopenta [b]pyridin-4-yl)carbamoyl)thiophene-2-sulfonimidamide], the IC50 in assay [2] (setting [5]) was 40 to 200 nM.

As to `Cc1c(C(F)(F)F)ncc(-c2ccnc(C#N)c2)c1NC(=O)N=S(N)(=O)c1sc(C(C)(C)O)nc1CO` (stereo not shown) [Compound 812], the IC50 in assay [2] (setting [5]) was 40 to 200 nM.

As for `Cc1c(C(F)(F)F)nc2c(c1NC(=O)N=S(N)(=O)c1nn(C3CC3)cc1F)CCC2` (stereo not shown) [Example 854, 1-Cyclopropyl-4-fluoro-N′-((3-methyl-2-(trifluoromethyl)-6,7-dihydro-5H-cyclopenta[b]pyridin-4-yl)carbamoyl)-1H-pyrazole-3-sulfonimidamide], the IC50 in assay [2] (setting [4]) is 40 to 200 nM.

`NS(=O)(=NC(=O)Nc1c2c(nc3c1CCC3)CCC2)c1nn(C2CC2)cc1F` (single isomer, unassigned) [Example 863, (R) or (S)-1-cyclopropyl-4-fluoro-N′-((1,2,3,5,6,7-hexahydrodicyclopenta[b,e]pyridin-8-yl)carbamoyl)-1H-pyrazole-3-sulfonimidamide]: the IC50 in assay [2] (setting [3]) fell in the range of 40 to 200 nM.

For `Cc1c(C(F)(F)F)nc2c(c1NC(=O)N=S(N)(=O)c1cnc(C(F)F)s1)CCC2` (stereo not shown) [Compound 1007, 2-(Difluoromethyl)-N′-((3-methyl-2-(trifluoromethyl)-6,7-dihydro-5H-cyclopenta[b]pyridin-4-yl)carbamoyl)thiazole-5-sulfonimidamide], the IC50 in assay [2] (setting [5]) was in the range of 5000 to 30000 nM.
